The record followed here is patent US20230142274A1 (SIMCERE PHARMACEUTICAL CO., LTD., priority 2020, published 2023).

The test system of one experiment is Daudi cells. Kind of experiment: Inhibition of human Daudi lymphoma cell proliferation (Cell-Titer Glo). The note with it: Homo sapiens, 72 h, 3 days incubation, read-out: Anti-Proliferative Activity Against Daudi cells IC50. The class given is cell-based. The method, boiled down: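 Daudi cells in RPMI 1640 with 10% FBS were seeded and grown 24 h, then exposed for 3 days (37 °C, 5% CO2) to 10-point 3-fold serial dilutions at 0.25% final DMSO. Viability was read by CellTiter-Glo ATP luminescence, and IC50 was fitted from % inhibition against top/bottom controls.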

A further experiment deals with WI-38 cells. Kind of experiment: Inhibition of human WI-38 embryonic lung cell proliferation (Cell-Titer Glo). It counts as cell-based. The note with it: Homo sapiens, 72 h, 3 days incubation, read-out: Anti-Proliferative Activity Against WI-38 cells IC50. On the procedure:
Introduction of the experimental principle: After the RAD51 inhibitor to be tested was co-incubated with human embryonic lung cells for a period of time, the influence of the test compound on cell proliferation was measured by a method for counting cell proliferation based on the quantitative measurement of intracellular ATP content.
Materials and Cells: WI-38 cells were purchased from ATCC; fetal bovine serum, 1640 medium and penicillin-streptomycin were purchased from Gibco Inc. (U.S.), 96-well plates were purchased from Corning Inc. (U.S.), and Cell-Titer Glo reagent was purchased from Promega Corporation (U.S.).
Cell culture: WI-38 cells were cultured in an EMEM culture medium containing 10% fetal bovine serum and 1% penicillin-streptomycin at 37° C. in an atmosphere containing 5% CO2. Cells in logarithmic growth phase could be used for experiments.
Assay of cell proliferation and viability: Cell-Titer Glo reagent was used to measure the inhibitory activities of the compounds on the proliferation of WI-38 cell strain. The concentration of cells was adjusted, and the cells were seeded in a 96-well plate and cultured at 37° C. in an atmosphere containing 5% CO2 for 24 hours. The powder of the compound was dissolved in 100% DMSO to form a 10 mM solution. 10 μl of the solution of the compound was aspirated and transferred into a 96-well compound plate containing 20 μl of DMSO solution in each well for 3-fold dilution and was then formulated to 10 serial dilutions. Thereafter, 2 μl of the solution of the compound was aspirated from the corresponding well and added correspondingly into a 96-well intermediate compound dilution plate containing 78 μl of complete culture medium in each well. The resultant was mixed well, and the plate was centrifuged at 1000 rpm for 1 minute. Finally, 10 μl of the solution of the compound was aspirated from the corresponding well of the 96-well intermediate compound dilution plate, and transferred into the corresponding well of the cell culture plate containing 90 μl of complete culture medium. The final concentration of DMSO was 0.25%. After the addition of the compound, the cells were continued to be incubated for 3 days at 37° C. in an atmosphere containing 5% CO2. Cell-Titer Glo reagent was added to measure cell viability.
% Compound inhibition was calculated and IC50 of the compound was fitted;
% Compound inhibition=1−100%×(Signal−Bottom)/(Top−Bottom)

Some results are limits rather than exact numbers.

As a reminder, the IC50 is the concentration that gives 50% inhibition. In the case of `CC(C)OC(=O)N[C@H]1CC[C@H](c2ncc(-c3ccc(NC(=O)NCc4ccccc4)cc3P(C)(C)=O)s2)CC1` [Example 26, isopropyl trans-(4-(5-(4-(3-benzylureido)-2-(dimethylphosphoryl)phenyl)thiazol-2-yl)cyclohexyl)carbamate], the IC50 in the experiment with Daudi cells was 130 nM; in the experiment on WI-38 cells it was greater than 25000 nM.

In the case of `CC(C)OC(=O)Nc1ccc(-c2cnc([C@H]3CC[C@H](NC(=O)OC(C)C)CC3)s2)c(NS(=O)(=O)C(C)(C)C)c1` [Example 19, isopropyl trans-N-[3-(tert-butylsulfonylamino)-4-[2-[4-(isopropoxycarbonylamino)cyclohexyl]thiazol-5-yl]phenyl]carbamate], the IC50 in the experiment with Daudi cells was 960 nM; with WI-38 cells it was greater than 25000 nM.

Turning to `CC(C)OC(=O)N[C@H]1CC[C@H](c2ncc(-c3ccc(Nc4cc[nH]n4)cc3S(=O)(=O)NC(C)(C)C)s2)CC1` [Example 22, isopropyl trans-(4-(5-(4-((1H-pyrazol-3-yl)amino)-2-(N-(tert-butyl)sulfamoyl)phenyl)thiazol-2-yl)cyclohexyl)carbamate], the 50% inhibitory concentration (IC50) with Daudi cells came to 35 nM; in the experiment on WI-38 cells, 23300 nM.

Turning to `CC(C)OC(=O)N[C@H]1CC[C@H](c2ncc(-c3ccc(Nc4cc(C5CC5)[nH]n4)cc3S(=O)(=O)C3CC3)s2)CC1` [Example 62, isopropyl trans-N-[4-[5-[4-[(5-cyclopropyl-1H-pyrazol-3-yl)amino]-2-cyclopropylsulfonyl-phenyl]thiazol-2-yl]cyclohexyl]carbamate], the IC50 with Daudi cells is 10 nM; in the experiment on WI-38 cells, greater than 25000 nM.

Consider `Cc1cc(Nc2ccc(-c3cnc([C@H]4CC[C@H](NC(=O)OC(C)C)CC4)s3)c(S(=O)(=O)C(C)C)c2)no1` [Example 37, isopropyl trans-(4-(5-(2-(isopropylsulfonyl)-4-((5-methylisoxazol-3-yl)amino)phenyl)thiazol-2-yl)cyclohexyl)carbamate], for which the half-maximal inhibitory concentration (IC50) is 330 nM with Daudi cells and greater than 25000 nM with WI-38 cells.

On to `CC(C)OC(=O)N[C@H]1CC[C@H](c2ncc(-c3ccc(Nc4cnn(CCF)c4)cc3S(=N)(=O)C3CCC3)s2)CC1` (stereo partly drawn) [Example 102], for which the figures for the half-inhibitory concentration (IC50) in the experiment with Daudi cells and with WI-38 cells were 17 nM and greater than 25000 nM, respectively.

`CC(C)OC(=O)N[C@H]1CC[C@H](c2ncc(-c3ccc(Nc4cc(C5CC5)[nH]n4)cc3S(=O)(=O)C(C)C)s2)CC1` [Example 45, isopropyl trans-N-[4-[5-[4-[(5-cyclopropyl-1H-pyrazol-3-yl)amino]-2-isopropylsulfonyl-phenyl]thiazol-2-yl]cyclohexyl]carbamate]: the IC50 in the experiment with Daudi cells is 62 nM; in the experiment with WI-38 cells it was greater than 25000 nM.

With `Cc1cc(Nc2ccc(-c3cnc([C@H]4CC[C@H](NC(=O)OC(C)C)CC4)s3)c(S(=N)(=O)C3CCC3)c2)n[nH]1` (stereo partly drawn) [Example 101, isopropyl trans-(4-(5-(2-(cyclobutanesulfonimidoyl)-4-((5-methyl-1H-pyrazol-3-yl)amino)phenyl]thiazol-2-yl)cyclohexyl)carbamate], the results for the half-inhibitory concentration (IC50) in the experiment on Daudi cells and with WI-38 cells were 28 nM and greater than 25000 nM, respectively.

As to `Cc1cc(Nc2ccc(-c3cnc([C@H]4CC[C@H](NC(=O)OC(C)C)CC4)s3)c(S(=O)(=O)C3CCOC3)c2)n[nH]1` (stereo partly drawn) [Example 115, isopropyl trans-(4-(5-(4-((5-methyl-1H-pyrazol-3-yl)amino)-2-((tetrahydrofuran-3-yl)sulfonyl)phenyl)thiazol-2-yl)cyclohexyl)carbamate], the 50% inhibitory concentration (IC50) in the experiment on Daudi cells is 16 nM; in the experiment with WI-38 cells it was greater than 25000 nM.

Take `CC(C)OC(=O)N[C@H]1CC[C@H](c2ncc(-c3ccc(Nc4cn(C)nn4)cc3S(=O)(=O)C(C)C)s2)CC1` [Example 39, isopropyl trans-(4-(5-(2-(isopropylsulfonyl)-4-((1-methyl-1H-1,2,3-triazol-4-yl)amino)phenyl)thiazol-2-yl)cyclohexyl)carbamate]: the results for the IC50 with Daudi cells and with WI-38 cells were 230 nM and greater than 25000 nM, respectively.

Regarding `CC(C)OC(=O)Nc1ccc(-c2cnc(C34CC(NC(=O)OC(C)C)(C3)C4)s2)c(S(=O)(=O)NC(C)(C)C)c1` [Example 7, isopropyl (3-(5-(4-(isopropoxycarbonyl)amino-2-(N-(tert-butyl)sulfamoyl)phenyl)thiazol-2-yl)bicyclo[1.1.1]pent-1-yl)carbamate], the results for the IC50 in the experiment on Daudi cells and with WI-38 cells were 2590 nM and greater than 25000 nM, respectively.

Take `CC(C)OC(=O)Nc1ccc(-c2cnc(C3CC4CCC(C3)C4NC(=O)OC(C)C)s2)c(S(=O)(=O)NC(C)(C)C)c1` (stereo not drawn) [Example 21, isopropyl N-[3-(tert-butylsulfamoyl)-4-[2-[8-(isopropoxycarbonylamino)-3-bicyclo[3.2.1]octyl]thiazol-5-yl]phenyl]carbamate]: the IC50 was 440 nM in the experiment on Daudi cells and greater than 25000 nM with WI-38 cells.

Consider `CC(C)OC(=O)N[C@H]1CC[C@H](c2ncc(-c3ccc(Nc4cn(C)nn4)cc3P3(=O)CCCC3)s2)CC1` [Example 53, isopropyl trans-N-[4-[5-[4-[(1-methyltriazol-4-yl)amino]-2-(1-oxidophospholan-1-yl)phenyl]thiazol-2-yl]cyclohexyl]carbamate], for which the values for the half-inhibitory concentration (IC50) with Daudi cells and with WI-38 cells were 100 nM and greater than 25000 nM, respectively.

Turning to `C=CC(=O)N=S(=O)(c1cc(NC(=O)OC(C)C)ccc1-c1cnc([C@H]2CC[C@H](NC(=O)OC(C)C)CC2)s1)C(C)C` (relative stereo) [Example 4, isopropyl trans-N-[4-[2-[4-(isopropoxycarbonylamino)cyclohexyl]thiazol-5-yl]-3-(isopropyl-N-prop-2-enoyl-sulfonimidoyl)phenyl]carbamate], the IC50 worked out at 1010 nM in the experiment with Daudi cells and 7220 nM in the experiment on WI-38 cells.

As for `CC(C)OC(=O)Nc1ccc(-c2nnc([C@H]3CC[C@H](NC(=O)OC(C)C)CC3)s2)c(S(=O)(=O)NC(C)(C)C)c1` [Example 5, isopropyl trans-N-[3-(tert-butylsulfamoyl)-4-[5-[4-(isopropoxycarbonylamino)cyclohexyl]-1,3,4-thiadiazol-2-yl]phenyl]carbamate], the IC50 in the experiment with Daudi cells is 1160 nM; in the experiment on WI-38 cells it was greater than 25000 nM.

For the compound `Cc1cc(Nc2ccc(-c3cnc([C@H]4CC[C@H](NC(=O)OC(C)C)CC4)s3)c(S(=O)(=O)C(C)C)c2)n[nH]1` [Example 40, isopropyl trans-(4-(5-(2-(isopropylsulfonyl)-4-((5-methyl-1H-pyrazol-3-yl)amino)phenyl)thiazol-2-yl)cyclohexyl)carbamate], the values for the IC50 with Daudi cells and in the experiment on WI-38 cells were 51 nM and 22900 nM, respectively.

In the case of `Cc1cc(Nc2ccc(-c3cnc([C@H]4CC[C@H](NC(=O)OC(C)C)CC4)s3)c(S(=O)(=O)C3CN(C)C3)c2)n[nH]1` [Example 114, isopropyl trans-(4-(5-(4-((5-methyl-1H-pyrazol-3-yl)amino)-2-((1-methylazetidin-3-yl)sulfonyl)phenyl)thiazol-2-yl)cyclohexyl)carbamate], the figures for the IC50 with Daudi cells and in the experiment on WI-38 cells were 14 nM and greater than 25000 nM, respectively.

Consider `CC(C)OC(=O)N[C@H]1CC[C@H](c2ncc(-c3ccc(NC(=O)OCC4CC4)cc3S(=O)(=O)NC(C)(C)C)s2)CC1` [Example 16, isopropyl trans-N-[4-[5-[2-(tert-butylsulfamoyl)-4-(cyclopropylmethoxycarbonylamino)phenyl]thiazol-2-yl]cyclohexyl]carbamate], for which the IC50 was 490 nM in the experiment with Daudi cells and greater than 25000 nM with WI-38 cells.
